According to patent publication US20250057751A1, “PEPTIDE HAVING ACTIVITY OF IMPROVING STATE OF SKIN, AND USE THEREOF” (CAREGEN CO., LTD., priority 2021, published 2025):

Experiments:
NIH3T3 cells [1] = assay: Proliferation promoting effect on skin cells (SRB staining, absorbance at 560 nm); format: cell-based, mouse; conditions: 50 μM or 100 μM peptide, 72 hours, serum-free DMEM, FIG. 1A
Description: (§1) In this example, the aim was to confirm the effect of a peptide according to an example on proliferation of skin cells, by evaluating changes in survival rate of NIH3T3 cells, which are mouse fibroblasts, or HaCaT cells, which are human keratinocytes.
(§2) Specifically, NIH3T3 cells or HaCaT cells were seeded in a 96-well plate at a density of 5×10^3 cells/well and cultured for 24 hours. The cells were then washed once with serum-free DMEM media, and the culture medium was replaced with serum-free DMEM media. Then, 50 μM or 100 μM of the peptide consisting of the amino acid sequence of SEQ ID NO: 1 was dispensed into the medium, and cultured in a CO2 incubator at 37° C. for 72 hours. The culture was then washed twice with PBS and treated with 4% paraformaldehyde (PFA) solution for 15 minutes to fix the cultured cells. The culture was then washed twice with distilled water, treated with SRB solution for 1 hour to stain the cells, washed with 1% acetic acid solution, and dried. The dried culture was then dissolved in 20 mM Tris buffer solution and the absorbance at 560 nm was measured using a microplate reader (Molecular Devices, USA). In this example, the untreated group was used as the control group, and the group to which insulin-like growth factor was added (IGF) was used as the positive control group.

HaCaT cells [2] = assay: Inhibitory effect on apoptosis of skin cells induced by ultraviolet rays (survival rate, SRB); format: cell-based, human; conditions: 15m J/cm2 ultraviolet rays, 50 μM or 100 μM peptide, 72 hours, FIG. 6B
Description: (§3) In this example, the aim was to confirm the effect of the peptide according to an example on the inhibition of apoptosis or cell recovery of skin cells induced by ultraviolet rays, by evaluating the change in survival rate of skin cells whose apoptosis was induced by ultraviolet irradiation.
(§4) Specifically, NIH3T3 cells or HaCaT cells were seeded in a 96-well plate at a density of 1×10^4 cells/well and cultured for 24 hours. The cells were then washed once with serum-free DMEM media, the culture medium was replaced with serum-free DMEM media, and 50 μM or 100 μM of the peptide consisting of the amino acid sequence of SEQ ID NO: 1 was dispensed to the culture medium. The culture medium dispensed with the peptide was cultured in a CO2 incubator at 37° C. for 1 hour, transferred to an e-tube, mixed with 100 ul of PBS, and dispensed into a well plate. Afterwards, using a UV irradiator (VILBER LOURMAT, France), 6 J/cm2 ultraviolet rays were irradiated to NIH3T3 cells, and 15m J/cm2 ultraviolet rays were irradiated to HaCaT cells. The PBS in the well plate was then removed, 900 μL of the culture medium in which the peptides were dispensed was added, and the plate was cultured in a CO2 incubator at 37° C. for 72 hours. […] The dried culture was then dissolved in 20 mM Tris buffer solution and the absorbance at 560 nm was measured using a microplate reader (Molecular Devices, USA). […]

NIH3T3 cells [3] = assay: as above; format: cell-based, mouse; conditions: 6 J/cm2 ultraviolet rays, 50 μM or 100 μM peptide, 72 hours, FIG. 6A
Description: as §3, §4

HaCaT cells [4] = assay: Proliferation promoting effect on skin cells (SRB staining, absorbance at 560 nm); format: cell-based, human; conditions: 50 μM or 100 μM peptide, 72 hours, serum-free DMEM, FIG. 1B
Description: as §1, §2

aquaporin-3 (AQP3) = assay: Expression of skin barrier factor in HaCaT cells (RT-PCR); format: cell-based, human; conditions: 50 μM or 100 μM peptide, 24 hours, FIG. 4, FIG. 5B
Description: (§5) In this example, the aim was to confirm the effect of the peptides according to an example on skin barrier defense, by evaluating the expression levels of sirtuin-1 (SIRT-1) or aquaporin-3 (AQP3).
(§6) Specifically, HaCaT cells were seeded in a 6-well plate at a density of 3×10^5 cells/well and cultured for 24 hours. The cells were then washed once with serum-free DMEM media, and the culture medium was replaced with serum-free DMEM media. Thereafter, 50 μM or 100 μM of the peptide consisting of the amino acid sequence of SEQ ID NO: 1 was dispensed into the medium, and cultured in a CO2 incubator at 37° C. for 24 hours. The culture was then washed twice with PBS, and RNA was isolated from the culture using easy blue (iNtRON, Korea). Using the RT kit (Enzynomics, Korea), 1 ug of the isolated RNA was reverse transcribed to synthesize the respective cDNA. Polymerase chain reaction was then performed using the cDNAs and primers sirtuin-1and aquaporin-3. Meanwhile, the untreated group was used as the control group, and the group to which EGF was added (EGF) was used as the positive control group, the nucleotide sequences of the primers used in this example are shown in Table 3 below.

sirtuin-1 (SIRT-1) = assay: as above; format: cell-based, human; conditions: 50 μM or 100 μM peptide, 24 hours, FIG. 4, FIG. 5A
Description: as §5, §6

HaCaT cells [5] = assay: Antioxidant effect on skin cells induced by ultraviolet rays (reactive oxygen species, flow cytometry); format: cell-based, human; conditions: 15m J/cm2 ultraviolet rays, 50 μM or 100 μM peptide, 24 hours, FIG. 7B
Description: (§7) In this example, the aim was to confirm the effect of the peptide according to an embodiment on the antioxidant effect of skin cells induced by ultraviolet rays, by evaluating the level of reactive oxygen species in skin cells increased by ultraviolet irradiation.
as §4, with “6-well” for “96-well”, “5×10^5” for “1×10^4”, “24” for “72”, “After washing” for “The dried culture was then dissolved in 20 mM Tris buffer solution and”, “centrifuged cells with PBS, FL1 fluorescence values were” for “absorbance at 560 nm was”, “through flow cytometry (FACS, BD,” for “using a microplate reader (Molecular Devices,”

NIH3T3 cells [6] = assay: as above; format: cell-based, mouse; conditions: 6 J/cm2 ultraviolet rays, 50 μM or 100 μM peptide, 24 hours, FIG. 7A
Description: as §7
as §4, with “6-well” for “96-well”, “5×10^5” for “1×10^4”, “24” for “72”, “After washing” for “The dried culture was then dissolved in 20 mM Tris buffer solution and”, “centrifuged cells with PBS, FL1 fluorescence values were” for “absorbance at 560 nm was”, “through flow cytometry (FACS, BD,” for “using a microplate reader (Molecular Devices,”

collagen type 1 (Col1a1) = assay: Expression of extracellular matrix constituent factor in NIH3T3 cells (RT-PCR); format: cell-based, mouse; conditions: 50 μM or 100 μM peptide, 24 hours, FIG. 2, FIG. 3A
Description: (§8) In this example, the aim was to confirm the effect of the peptide according to an example on improving endogenous skin aging, including improvement of wrinkles and enhancement of elasticity, etc., by evaluating the expression levels of collagen type 1 (Col1a1), fibronectin, or elastin, which are known components of the dermis.
(§9) Specifically, NIH3T3 cells were seeded in a 6-well plate at a density of 3×10^5 cells/well and cultured for 24 hours. The cells were then washed once with serum-free DMEM media, and the culture medium was replaced with serum-free DMEM media. Thereafter, 50 μM or 100 μM of the peptide consisting of the amino acid sequence of SEQ ID NO: 1 was dispensed into the medium, and cultured in a CO2 incubator at 37° C. for 24 hours. The culture was then washed twice with PBS, and RNA was isolated from the culture using easy blue (iNtRON, Korea). Using an RT kit (Enzynomics, Korea), 1 μg of the isolated RNA was reverse transcribed to synthesize the respective cDNA. Polymerase chain reaction (PCR) was then performed using the cDNAs and primers Col1a1, fibronectin, and elastin. Meanwhile, the untreated group was used as the control group, and the group to which TGF-β1 was added (TGF-β1) was used as the positive control group, the nucleotide sequences of the primers used in this example are shown in Table 2 below.

elastin = assay: as above; format: cell-based, mouse; conditions: 50 μM or 100 μM peptide, 24 hours, FIG. 2, FIG. 3C
Description: as §8, §9

fibronectin = assay: as above; format: cell-based, mouse; conditions: 50 μM or 100 μM peptide, 24 hours, FIG. 2, FIG. 3B
Description: as §8, §9

**Q.** How did the proliferation of fibroblasts (NIH3T3 cells [1]) turn out when “IHGTYKELLDTVTAP (Peptide 1) [SEQ ID NO: 1]” was run?
**A.** promoted

**Q.** And the “cell survival rate of keratinocytes reduced by ultraviolet irradiation” value (HaCaT cells [2])?
**A.** restored

**Q.** What about the “cell survival rate of fibroblasts reduced by ultraviolet irradiation” value (NIH3T3 cells [3]) of the same sequence?
**A.** restored

**Q.** What about the proliferation of keratinocytes (HaCaT cells [4]) of the same sequence?
**A.** promoted

**Q.** What about the “expression of AQP3” value (aquaporin-3 (AQP3)) of the same sequence?
**A.** increased

**Q.** What about the “expression of SIRT-1” value (sirtuin-1 (SIRT-1)) of the same sequence?
**A.** increased

**Q.** What about the “level of reactive oxygen species in keratinocytes increased by ultraviolet irradiation” value (HaCaT cells [5]) of the same sequence?
**A.** reduced

**Q.** What about the “level of reactive oxygen species in fibroblasts increased by ultraviolet irradiation” value (NIH3T3 cells [6]) of the same sequence?
**A.** reduced

**Q.** What about the “expression of Col1a1” value (collagen type 1 (Col1a1)) of the same sequence?
**A.** increased

**Q.** And the expression of elastin (elastin)?
**A.** increased

**Q.** And the expression of fibronectin (fibronectin)?
**A.** increased
